The numbers were not newly measured in paper PMC8522729 (Antimicrobial Agents and Chemotherapy, 2021), which cites them from elsewhere.

For the data set, the system named is M. tuberculosis. Conditions: cited from earlier work.

In the case of `O=C1CCc2c(OC[C@]3(O)CCN(c4c(F)cc(Cl)cc4F)C[C@H]3O)ccc(F)c2N1` [OPC-167832], the frequency of resistance is listed as < 1.9 × 10^−7.
